US20260108527A1, “POLO LIKE KINASE 4 INHIBITORS” (ORIC Pharmaceuticals, Inc., priority 2022, published 2026)

Target: T1, human recombinant Aurora A (Homo sapiens, UniProt O14965)
T1 construct: purchased ThermoFisher PR5935A
T1 sequence (O14965 1-403): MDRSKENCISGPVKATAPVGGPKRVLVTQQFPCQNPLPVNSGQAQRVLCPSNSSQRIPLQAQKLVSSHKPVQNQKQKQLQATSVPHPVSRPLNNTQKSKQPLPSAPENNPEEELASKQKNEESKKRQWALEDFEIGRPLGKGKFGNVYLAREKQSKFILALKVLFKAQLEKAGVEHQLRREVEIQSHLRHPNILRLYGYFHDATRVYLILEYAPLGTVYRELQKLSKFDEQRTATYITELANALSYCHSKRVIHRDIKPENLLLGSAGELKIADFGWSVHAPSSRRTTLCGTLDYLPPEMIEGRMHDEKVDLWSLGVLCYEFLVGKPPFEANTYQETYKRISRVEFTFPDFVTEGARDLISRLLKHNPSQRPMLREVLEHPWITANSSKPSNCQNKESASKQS
Experiment: Aurora A Kinase Biochemical Assay (ADP-Glo)
Conditions: selectivity ratio; Aurora A 2.5 nM, 20 μM ATP
Protocol: Activity of human recombinant Aurora A (ThermoFisher, cat #PR5935A) was measured by quantification of adenosine diphosphate (ADP) using the ADP-Glo Kinase Assay Kit (Promega, cat #V9102). Test compounds were solubilized in dimethyl sulfoxide (DMSO) and dispensed into 384-well white polystyrene nonbinding plates (Greiner, cat #781094) using the Echo acoustic dispenser (Labcyte Inc.) in a 11-point 3-fold titration in duplicates. 5 μL of 5.0 nM Aurora A in assay buffer (50 mM HEPES, pH 7.5, 0.01% Brij-35, 0.01% BSA, 10 mM MgCl2, 1 mM EGTA, 1 mM DTT) was added to the plates. Test compounds and Aurora A were incubated for 15 minutes at room temperature (RT). Then 5 μL of a 40 μM adenosine triphosphate (ATP) (Promega, cat #V915B) and 9.3 μM Myelin Basic Protein (MBP) (SignalChem, cat #M42-51N) substrate solution in assay buffer was added and the reaction mixture was incubated for 2 hours at RT. The final concentration of Aurora A, ATP and MBP in the reactions were 2.5 nM, 20 μM and 4.7 μM, respectively. Reactions were stopped and the remaining ATP depleted by adding 10 μL of ADP-Glo reagent (Promega, cat #V912B) and incubating for 40 minutes at RT. The simultaneous conversion of the remaining ADP to ATP and measurement of the newly synthesized ATP was achieved by addition of 20 μL Kinase Detection reagent (Promega, cat #V914B), incubation for 30 min at RT, and luminescence detection using the EnVision plate reader (PerkinElmer). Reactions lacking Aurora A were used as 100% inhibition controls. Reactions containing DMSO alone were used as 0% inhibition controls. The IC50 values reported in Table 2 were determined using four parameter non-linear regression curve fit.

SMILES | [Aurora A IC50 (nM)]/[PLK4 IC50 (nM)]
COc1ccc2c(c1)[C@]1(C[C@H]1c1ccc3c(Nc4nc(-c5cnn(C)c5)cnc4OC)n[nH]c3c1)C(=O)N2 [Example 24, (1R,2S)-5′-methoxy-2-(3-{[3-methoxy-6-(1-methyl-1H-pyrazol-4-yl)pyrazin-2-yl]amino}-1H-indazol-6-yl)spiro[cyclopropane-1,3′-indol]-2′(1′H)-one] | 842.4019
CCOc1ccc(-c2nccs2)cc1Nc1n[nH]c2cc([C@@H]3C[C@@]34C(=O)Nc3ccc(OC)cc34)ccc12 [Example 33, (1R,2S)-2-{3-[2-ethoxy-5-(1,3-thiazol-2-yl)anilino]-1H-indazol-6-yl}-5′-methoxyspiro[cyclopropane-1,3′-indol]-2′(1′H)-one] | 1496.6799
COc1ccc2c(c1)[C@]1(C[C@H]1c1ccc3c(Nc4nc(-c5ncco5)ccc4OC)n[nH]c3c1)C(=O)N2 [Example 4, (1R,2S)-5′-methoxy-2-(3-{[3-methoxy-6-(1,3-oxazol-2-yl)pyridin-2-yl]amino}-1H-indazol-6-yl)spiro[cyclopropane-1,3′-indol]-2′(1′H)-one] | 538.2697
CCOc1cc(S(C)(=O)=O)ccc1Nc1n[nH]c2cc([C@@H]3C[C@@]34C(=O)N(C)c3ccc(OC)cc34)ccc12 [Example 23, (1R,2S)-2-{3-[2-ethoxy-4-(methanesulfonyl)anilino]-1H-indazol-6-yl}-5′-methoxy-1′-methylspiro[cyclopropane-1,3′-indol]-2′(1′H)-one] | 2258.3629
COc1ccc2c(c1)[C@]1(C[C@H]1c1ccc3c(Nc4cc(-c5cscn5)ccc4OC)n[nH]c3c1)C(=O)N2 [Example 15, (1R,2S)-5′-methoxy-2-{3-[2-methoxy-5-(1,3-thiazol-4-yl)anilino]-1H-indazol-6-yl}spiro[cyclopropane-1,3′-indol]-2′(1′H)-one] | 146.5230
COc1ccc2c(c1)[C@]1(C[C@H]1c1ccc3c(Nc4nc(N(C)C)ncc4OC)n[nH]c3c1)C(=O)N2 [Example 20, (1R,2S)-2-(3-{[2-(dimethylamino)-5-methoxypyrimidin-4-yl]amino}-1H-indazol-6-yl)-5′-methoxyspiro[cyclopropane-1,3′-indol]-2′(1′H)-one] | 170
CCOc1cc(-n2cncn2)cnc1Nc1n[nH]c2cc([C@@H]3C[C@@]34C(=O)Nc3ccc(OC)cc34)ccc12 [Example 38, (1R,2S)-2-(3-{[3-ethoxy-5-(1H-1,2,4-triazol-1-yl)pyridin-2-yl]amino}-1H-indazol-6-yl)-5′-methoxyspiro[cyclopropane-1,3′-indol]-2′(1′H)-one] | 2756.5515
COc1ccc2c(c1)[C@]1(C[C@H]1c1ccc3c(Nc4cc(-c5cocn5)ccc4OC)n[nH]c3c1)C(=O)N2 [Example 16, (1R,2S)-5′-methoxy-2-{3-[2-methoxy-5-(1,3-oxazol-4-yl)anilino]-1H-indazol-6-yl}spiro[cyclopropane-1,3′-indol]-2′(1′H)-one] | 259.1
COc1ccc2c(c1)[C@]1(C[C@H]1c1ccc3c(Nc4nc(-c5cnn(C)c5)ncc4OC)n[nH]c3c1)C(=O)N2 [Example 31, (1R,2S)-5′-methoxy-2-(3-{[5-methoxy-2-(1-methyl-1H-pyrazol-4-yl)pyrimidin-4-yl]amino}-1H-indazol-6-yl)spiro[cyclopropane-1,3′-indol]-2′(1′H)-one] | 743.0555
COc1ccc2c(c1)[C@]1(C[C@H]1c1ccc3c(Nc4cc(-c5cnn(C)c5)ncc4OC)n[nH]c3c1)C(=O)N2 [Example 27, (1R,2S)-5′-methoxy-2-(3-{[5-methoxy-2-(1-methyl-1H-pyrazol-4-yl)pyridin-4-yl]amino}-1H-indazol-6-yl)spiro[cyclopropane-1,3′-indol]-2′(1′H)-one] | 360.5487
CCOc1cc2c(ccc[n+]2[O-])cc1Nc1n[nH]c2cc([C@@H]3C[C@@]34C(=O)Nc3ccc(OC)cc34)ccc12 [Example 12, 7-ethoxy-6-((6-((1R,2S)-5′-methoxy-2′-oxospiro[cyclopropane-1,3′-indolin]-2-yl)-1H-indazol-3-yl)amino)quinoline 1-oxide] | 630
COc1ccc2c(c1)[C@]1(C[C@H]1c1ccc3c(Nc4cc(-c5cnn(CC(F)F)c5)cnc4OC)n[nH]c3c1)C(=O)N2 [Example 46, (1R,2S)-2-(3-((5-(1-(2,2-difluoroethyl)-1H-pyrazol-4-yl)-2-methoxypyridin-3-yl)amino)-1H-indazol-6-yl)-5′-methoxyspiro[cyclopropane-1,3′-indolin]-2′-one] | 469.9759
COc1ccc2c(c1)[C@]1(C[C@H]1c1ccc3c(Nc4cc5c(cc4OC)S(=O)(=O)CC5)n[nH]c3c1)C(=O)N2 [Example 1, 6-methoxy-5-({6-[(1R,2S)-5′-methoxy-2′-oxo-1′,2′-dihydrospiro[cyclopropane-1,3′-indol]-2-yl]-1H-indazol-3-yl}amino)-2,3-dihydro-1H-1-benzothiophene-1,1-dione] | 2164
COc1ccc2c(c1)[C@]1(C[C@H]1c1ccc3c(Nc4cc(-c5ccsn5)ccc4OC)n[nH]c3c1)C(=O)N2 [Example 30, (1R,2S)-5′-methoxy-2-{3-[2-methoxy-5-(1,2-thiazol-3-yl)anilino]-1H-indazol-6-yl}spiro[cyclopropane-1,3′-indol]-2′(1′H)-one] | 916.8947
CCOc1cc(-c2cn(C)cn2)ccc1Nc1n[nH]c2cc([C@@H]3C[C@@]34C(=O)Nc3ccc(OC)cc34)ccc12 [Example 29, (1R,2S)-2-{3-[2-ethoxy-4-(1-methyl-1H-imidazol-4-yl)anilino]-1H-indazol-6-yl}-5′-methoxyspiro[cyclopropane-1,3′-indol]-2′(1′H)-one] | 15611.2532
CCOc1ncc(-c2nccs2)nc1Nc1n[nH]c2cc([C@@H]3C[C@@]34C(=O)Nc3ccc(OC)cc34)ccc12 [Example 35, (1R,2S)-2-(3-{[3-ethoxy-6-(1,3-thiazol-2-yl)pyrazin-2-yl]amino}-1H-indazol-6-yl)-5′-methoxyspiro[cyclopropane-1,3′-indol]-2′(1′H)-one] | 727.2189
COc1ccc2c(c1)[C@]1(C[C@H]1c1ccc3c(Nc4ccc(C(C)=O)cc4OC)n[nH]c3c1)C(=O)N2 [Example 3, (1R,2S)-2-[3-(4-acetyl-2-methoxyanilino)-1H-indazol-6-yl]-5′-methoxyspiro[cyclopropane-1,3′-indol]-2′(1′H)-one] | 1671.3768
CCOc1cnc(-c2nccs2)cc1Nc1n[nH]c2cc([C@@H]3C[C@@]34C(=O)Nc3ccc(OC)cc34)ccc12 [Example 34, (1R,2S)-2-(3-{[5-ethoxy-2-(1,3-thiazol-2-yl)pyridin-4-yl]amino}-1H-indazol-6-yl)-5′-methoxyspiro[cyclopropane-1,3′-indol]-2′(1′H)-one] | 14827.5862
CCS(=O)(=O)c1ccc(Nc2n[nH]c3cc([C@@H]4C[C@@]45C(=O)Nc4ccc(OC)cc45)ccc23)c(OC)c1 [Example 5, (1R,2S)-2-{3-[4-(ethanesulfonyl)-2-methoxyanilino]-1H-indazol-6-yl}-5′-methoxyspiro[cyclopropane-1,3′-indol]-2′(1′H)-one] | 567.6936
CCOc1cnc(C#CC(C)(C)O)nc1Nc1n[nH]c2cc([C@@H]3C[C@@]34C(=O)Nc3ccc(OC)cc34)ccc12 [Example 45, (1R,2S)-2-(3-((5-ethoxy-2-(3-hydroxy-3-methylbut-1-yn-1-yl)pyrimidin-4-yl)amino)-1H-indazol-6-yl)-5′-methoxyspiro[cyclopropane-1,3′-indolin]-2′-one] | 42971.2230
CCOc1cc(-n2cncn2)ccc1Nc1n[nH]c2cc([C@@H]3C[C@@]34C(=O)Nc3ccc(OC)cc34)ccc12 [Example 10, (1R,2S)-2-{3-[2-ethoxy-4-(1H-1,2,4-triazol-1-yl)anilino]-1H-indazol-6-yl}-5′-methoxyspiro[cyclopropane-1,3′-indol]-2′(1′H)-one] | 2540.3949
COc1ccc2c(c1)[C@]1(C[C@H]1c1ccc3c(Nc4cc(-c5ccon5)ccc4OC)n[nH]c3c1)C(=O)N2 [Example 32, (1R,2S)-5′-methoxy-2-{3-[2-methoxy-5-(1,2-oxazol-3-yl)anilino]-1H-indazol-6-yl}spiro[cyclopropane-1,3′-indol]-2′(1′H)-one] | 325.6348
